Data: patent US6376673B1, “Piperidine derivatives as neurotransmitter re-uptake inhibitors” (Neurosearch A/S, priority 1997, dated 2002)

Biological target: T1, dopamine transporter (Rattus norvegicus, UniProt P23977)
T1 construct: Corpus striatum from male Wistar rats (150-200 g) is homogenized; from tissue; host or cells: rat corpus striatum membrane pellet
Assay: In vitro inhibition of 3H-WIN 35428 binding
Conditions: corpus striatum membranes of male Wistar rats; 1 nM 3H-WIN 35428, 60 min at 2° C.; read-out: In Vitro IC50 (inhibition of specific binding of 3H-WIN 35428)
Text: The compounds of the present invention have been tested for their ability to bind to the dopamine transporter in the following tests for in vitro inhibition of ^3H-WIN 35428.
In vitro Inhibition of ^3H-WIN 35428 Binding
Dopamine transporters/uptake sites on nerve terminals presumably function to terminate neuronal signaling by removing dopamine from the synaptic cleft. The activity or presence of the dopamine transporter integral protein can be measured in vitro with synaptosomal uptake of ^3H-dopamine or membrane binding assays with ^3H-ligands known to bind to the transporter.
Numerous ligands of several structural types have been reported to bind at the dopamine uptake site, but it remains questionable whether their binding sites are identical to that of cocaine. A structural analog og cocaine, ^3H-WIN 35428, binds selectively and with high affinity to the dopamine transporter complex.
Tissue preparation: Preparations are performed at 0-4° C. unless otherwise indicated. […]
Assay: Aliquots of 0.5 ml tissue are added to 25 ml of test solution and 25 ml of ^3H-WIN 35428 (1 nM, final concentration), mixed and incubated for 60 min at 2° C. Non-specific binding is determined using cocaine (30 mM, final concentration). […] The amount of radioactivity on the filters is determined by conventional liquid scintillation counting. […]

T1 sequence (P23977 whole entry): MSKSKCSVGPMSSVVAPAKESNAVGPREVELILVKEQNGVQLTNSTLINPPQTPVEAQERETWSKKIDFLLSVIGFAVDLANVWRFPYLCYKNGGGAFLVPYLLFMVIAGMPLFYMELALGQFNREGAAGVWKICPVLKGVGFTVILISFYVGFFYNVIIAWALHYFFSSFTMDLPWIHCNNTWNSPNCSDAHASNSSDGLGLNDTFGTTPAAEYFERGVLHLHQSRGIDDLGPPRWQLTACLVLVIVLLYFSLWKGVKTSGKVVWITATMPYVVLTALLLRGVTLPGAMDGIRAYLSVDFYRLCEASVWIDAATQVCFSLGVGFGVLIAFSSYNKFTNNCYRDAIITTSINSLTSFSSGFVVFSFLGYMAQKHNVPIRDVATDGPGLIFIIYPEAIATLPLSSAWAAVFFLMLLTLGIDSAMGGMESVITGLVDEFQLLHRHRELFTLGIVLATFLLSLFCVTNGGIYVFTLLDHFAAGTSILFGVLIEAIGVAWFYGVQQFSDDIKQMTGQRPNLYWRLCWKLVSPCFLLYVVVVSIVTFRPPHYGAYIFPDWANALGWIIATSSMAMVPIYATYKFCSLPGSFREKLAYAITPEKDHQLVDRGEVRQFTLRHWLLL

**Q.** How did the IC50 turn out when `CON=CC1CN(C)CCC1c1ccc(Cl)c(Cl)c1` (stereo not shown) [1-Metyl-3-methoxyiminomethyl-4-(3,4-dichlorophenyl)piperidine] was run?
**A.** 16 nM
